Data set [1] has as its system Pancreatic acinar cell. The experiment in a line: (§1) Cytoprotective activity against sodium taurocholate-induced necrosis in Balb/C mouse pancreatic acinar cells at 0.5 mM after 40 mins by propidium iodide/Hoechst 33342 staining-based fluorescence microscopic method. The format is functional.
The test system of data set [2] is Pancreatic acinar cell. The experiment in a line: Cytoprotective activity against sodium taurocholate-induced necrosis in Balb/C mouse pancreatic acinar cells at 5 mM after 40 mins by propidium iodide/Hoechst 33342 staining-based fluorescence microscopic method. It is filed as functional.
Data set [3] is described as follows: as §1. The format is functional, Pancreatic acinar cell.
In data set [4] the test system is Pancreatic acinar cell. The experiment in a line: Cytoprotective activity against sodium taurocholate-induced necrosis in Balb/C mouse pancreatic acinar cells at 1 mM after 40 mins by propidium iodide/Hoechst 33342 staining-based fluorescence microscopic method. It is filed as functional.
Data set [5] in a line: Cytotoxicity against Balb/C mouse pancreatic acinar cells at 1 mM after 40 mins by propidium iodide/Hoechst 33342 staining-based fluorescence microscopic method. The note with it: pancreatic acinar cell, 1000 µM.
The nature of data set [6]: Cytoprotective activity against sodium taurocholate-induced necrosis in Balb/C mouse pancreatic acinar cells assessed as decrease in intracellular reactive oxygen species generation at 0.5 mM measured for 20 mins by H2-DCFDA probe-based fluorescence assay relative to control. It is filed as functional, Pancreatic acinar cell. Also noted: scale not given: the % may be the effect or the level left.

Data set [7] in a line: Cytoprotective activity against sodium taurocholate-induced necrosis in Balb/C mouse pancreatic acinar cells assessed as intracellular ATP production at 0.5 mM measured at 20 mins by luminescence assay (reference value: 39.9%). It is filed as functional, Pancreatic acinar cell.
Data set [8] can be described thus: Cytoprotective activity against sodium taurocholate-induced necrosis in Balb/C mouse pancreatic acinar cells assessed as intracellular ATP production at 0.5 mM measured at 40 mins by luminescence assay (reference value: 21.5%). The format is functional, Pancreatic acinar cell.

Structures are written as SMILES. Active and inactive are the calls of the source. The rule behind the calls is not given here.

Data on nine compounds can be found in ChEMBL document CHEMBL3997834, “Phenolic compounds isolated from Dioscorea zingiberensis protect against pancreatic acinar cells necrosis induced by sodium taurocholate” (Bioorg Med Chem Lett, 2017).

With `COc1ccc(CCc2cc(O)c(OC)c(O)c2)cc1`, the result in data set [1] was inactive.
In the case of `COc1cc(CC[C@@H](O)C[C@H](O)CCc2ccc(O)c(OC)c2)ccc1O`, in data set [1], the result was Active.
Still for that read-out and setting: with `COc1cc(O)cc(CCc2ccc(OC)c(O)c2)c1` the entry was “inactive”.
Same read-out and setting: with `COc1c(O)cc(CCc2ccccc2)cc1O` the entry was “inactive”.
Consider `Cn1c(=O)c2c(ncn2C)n(C)c1=O`, for which the outcome in data set [2] was Active.
For the compound `Oc1ccc(CC[C@@H](O)C[C@H](O)CCc2ccc(O)cc2)cc1`, in data set [1], the outcome was Active.
On the same count and under the same terms, with `COc1ccc2c(c1O)-c1c(cc(O)cc1OC)CC2` the entry was “inactive”; with `COc1cc(CC[C@@H](O)C[C@H](O)CCc2ccc(O)cc2)ccc1O`, “Active”.
For `Oc1ccc(CC[C@@H](O)C[C@H](O)CCc2ccc(O)c(O)c2)cc1`, the Activity in data set [3] is on record as 19%; in data set [5], “Toxic”; in data set [6], 27.9%; in data set [7], 59.4%; in data set [8] it was 38.3%. Also, the outcome in data set [4] was inactive.
